Results as given in BindingDB's records for doi:10.1021/jm030795v (Wroclaw University of Technology, 2003).
Structures can show the parent of a compound that is named as a salt.

Biological target: Cytosol aminopeptidase (Sus scrofa)
Test: Binding affinity for cytosolic leucine aminopeptidase (LAP) from porcine kidney

Going from `CC(C)CC(N)C=O` (stereo not drawn) [2-Amino-4-methyl-pentanal] to `CC(C)CC(OP(=O)(O)C(N)CC(C)C)C(=O)O` (stereo not drawn) [2-[(1-Amino-3-methyl-butyl)-hydroxy-phosphinoyloxy]-4-methyl-pentanoic acid], the Ki rises from 0.06 µM to 58 µM (970-fold).

Compound `CC(C)CC(O)P(=O)(O)NCC(=O)O` (stereo not drawn) [{[hydroxy(1-hydroxy-3-methylbutyl)phosphoryl]amino}acetic acid; dilithium salt] has a Ki of 4.88 µM.
